{"source": "ChEMBL document CHEMBL3868595", "about": "“Plazomicin is effective in a non-human primate pneumonic plague model” (Bioorg Med Chem, 2016)", "key": {"African green monkey [1]": {"test_system": "African green monkey", "experiment": "Toxicity in African green monkey B6140 model infected with Yersinia pestis Colorado 92 assessed as blood urea nitrogen level at 25 mg/kg, iv administered within 6 hrs post onset of sustained fever as 30 mins infusion for 10 days (reference value: 24 mg/dl)", "assay_type": "organism-based", "conditions": "chlorocebus sabaeus, in vivo"}, "Yersinia pestis [2]": {"test_system": "Yersinia pestis", "experiment": "Antibacterial activity against Yersinia pestis Colorado 92 infected in African green monkey B6861 model assessed as bacterial burden in liver at 6.25 mg/kg, iv administered within 6 hrs post onset of sustained fever as 30 mins infusion for 5 days (reference value: 5.2 10^8CFU/g)", "assay_type": "functional, CO92"}, "Yersinia pestis [3]": {"test_system": "Yersinia pestis", "experiment": "Antibacterial activity against Yersinia pestis Colorado 92 infected in African green monkey B6436 model assessed as bacterial burden in kidney at 25 mg/kg, iv administered within 6 hrs post onset of sustained fever as 30 mins infusion for 5 days (reference value: 7.1 10^7CFU/g)", "assay_type": "functional, organism-based", "conditions": "CO92"}, "Yersinia pestis [4]": {"test_system": "Yersinia pestis", "experiment": "Antibacterial activity against Yersinia pestis Colorado 92 infected in African green monkey C2149 model assessed as bacterial burden in spleen at 6.25 mg/kg, iv administered within 6 hrs post onset of sustained fever as 30 mins infusion for 5 days (reference value: 1.6 10^9CFU/g)", "assay_type": "functional, CO92"}, "Yersinia pestis [5]": {"test_system": "Yersinia pestis", "experiment": "(§1) Antibacterial activity against Yersinia pestis Colorado 92 infected in African green monkey B6469 model assessed as bacterial burden in tracheobronchial lymph nodes at 25 mg/kg, iv administered within 6 hrs post onset of sustained fever as 30 mins infusion for 5 days (reference value: 7.7 10^9CFU/g)", "assay_type": "functional, organism-based", "conditions": "CO92, Lymph node"}, "Yersinia pestis [6]": {"test_system": "Yersinia pestis", "experiment": "Antibacterial activity against Yersinia pestis Colorado 92 infected in African green monkey B6127 model assessed as bacterial burden in spleen at 25 mg/kg, iv administered within 6 hrs post onset of sustained fever as 30 mins infusion for 10 days (reference value: 1.6 10^9CFU/g)", "assay_type": "functional, organism-based", "conditions": "CO92"}, "African green monkey [7]": {"test_system": "African green monkey", "experiment": "Toxicity in African green monkey 7337 model infected with Yersinia pestis Colorado 92 assessed as serum alanine aminotransferase level at 25 mg/kg, iv administered within 6 hrs post onset of sustained fever as 30 mins infusion for 10 days (reference value: 55 IU/L)", "assay_type": "organism-based", "conditions": "chlorocebus sabaeus, in vivo"}, "Yersinia pestis [8]": {"test_system": "Yersinia pestis", "experiment": "Antibacterial activity against Yersinia pestis Colorado 92 infected in African green monkey B6873 model assessed as bacterial burden in heart at 12.5 mg/kg, iv administered within 6 hrs post onset of sustained fever as 30 mins infusion for 5 days (reference value: 2.6 10^7CFU/g)", "assay_type": "functional, organism-based", "conditions": "CO92"}, "Yersinia pestis [9]": {"test_system": "Yersinia pestis", "experiment": "Antibacterial activity against Yersinia pestis Colorado 92 infected in African green monkey B6960 model assessed as bacterial burden in heart at 6.25 mg/kg, iv administered within 6 hrs post onset of sustained fever as 30 mins infusion for 5 days (reference value: 2.6 10^7CFU/g)", "assay_type": "functional, CO92"}, "Yersinia pestis [10]": {"test_system": "Yersinia pestis", "experiment": "Antibacterial activity against Yersinia pestis Colorado 92 infected in African green monkey B6873 model assessed as bacterial burden in kidney at 12.5 mg/kg, iv administered within 6 hrs post onset of sustained fever as 30 mins infusion for 5 days (reference value: 7.1 10^7CFU/g)", "assay_type": "functional, organism-based", "conditions": "CO92"}, "African green monkey [11]": {"test_system": "African green monkey", "experiment": "Toxicity in African green monkey 7653 model infected with Yersinia pestis Colorado 92 assessed as serum gamma glutamyl-transferase level at 25 mg/kg, iv administered within 6 hrs post onset of sustained fever as 30 mins infusion for 10 days (reference value: 37 IU/L)", "assay_type": "organism-based", "conditions": "chlorocebus sabaeus, in vivo"}, "Yersinia pestis [12]": {"test_system": "Yersinia pestis", "experiment": "Antibacterial activity against Yersinia pestis Colorado 92 infected in African green monkey B6436 model assessed as bacterial burden in lung at 25 mg/kg, iv administered within 6 hrs post onset of sustained fever as 30 mins infusion for 5 days (reference value: 7.7 10^8CFU/g)", "assay_type": "functional, CO92"}, "African green monkey [13]": {"test_system": "African green monkey", "experiment": "Toxicity in African green monkey 7972 model infected with Yersinia pestis Colorado 92 assessed as serum lactate dehydrogenase level at 25 mg/kg, iv administered within 6 hrs post onset of sustained fever as 30 mins infusion for 10 days (reference value: 381 IU/L)", "assay_type": "organism-based", "conditions": "chlorocebus sabaeus, in vivo"}, "Yersinia pestis [14]": {"test_system": "Yersinia pestis", "experiment": "Antibacterial activity against Yersinia pestis Colorado 92 infected in African green monkey B6988 model assessed as bacterial burden in heart at 6.25 mg/kg, iv administered within 6 hrs post onset of sustained fever as 30 mins infusion for 5 days (reference value: 2.6 10^7CFU/g)", "assay_type": "functional, CO92"}, "Yersinia pestis [15]": {"test_system": "Yersinia pestis", "experiment": "Antibacterial activity against Yersinia pestis Colorado 92 infected in African green monkey B6873 model assessed as bacterial burden in spleen at 12.5 mg/kg, iv administered within 6 hrs post onset of sustained fever as 30 mins infusion for 5 days (reference value: 1.6 10^9CFU/g)", "assay_type": "functional, organism-based", "conditions": "CO92"}, "African green monkey [16]": {"test_system": "African green monkey", "experiment": "Toxicity in African green monkey B6127 model infected with Yersinia pestis Colorado 92 assessed as weight loss at 25 mg/kg, iv administered within 6 hrs post onset of sustained fever as 30 mins infusion for 10 days measured from day 7 to 14 post dose", "assay_type": "organism-based", "conditions": "chlorocebus sabaeus, in vivo"}, "Yersinia pestis [17]": {"test_system": "Yersinia pestis", "experiment": "Antibacterial activity against Yersinia pestis Colorado 92 infected in African green monkey B6783 model assessed as bacterial burden in lung at 12.5 mg/kg, iv administered within 6 hrs post onset of sustained fever as 30 mins infusion for 5 days (reference value: 7.7 10^8CFU/g)", "assay_type": "functional, CO92"}, "Yersinia pestis [18]": {"test_system": "Yersinia pestis", "experiment": "Antibacterial activity against Yersinia pestis Colorado 92 infected in African green monkey C2083 model assessed as bacterial burden in blood at 12.5 mg/kg, iv administered within 6 hrs post onset of sustained fever as 30 mins infusion for 5 days (reference value: 1.2 10^7CFU/ml)", "assay_type": "functional, CO92"}, "African green monkey [19]": {"test_system": "African green monkey", "experiment": "Toxicity in African green monkey B6291 model infected with Yersinia pestis Colorado 92 assessed as serum gamma glutamyl-transferase level at 25 mg/kg, iv administered within 6 hrs post onset of sustained fever as 30 mins infusion for 10 days (reference value: 77 IU/L)", "assay_type": "organism-based", "conditions": "chlorocebus sabaeus, in vivo"}, "African green monkey [20]": {"test_system": "African green monkey", "experiment": "Toxicity in African green monkey 8067 model infected with Yersinia pestis Colorado 92 assessed as serum lactate dehydrogenase level at 25 mg/kg, iv administered within 6 hrs post onset of sustained fever as 30 mins infusion for 10 days (reference value: 287 IU/L)", "assay_type": "organism-based", "conditions": "chlorocebus sabaeus, in vivo"}, "Yersinia pestis [21]": {"test_system": "Yersinia pestis", "experiment": "Antibacterial activity against Yersinia pestis Colorado 92 infected in African green monkey B6988 model assessed as bacterial burden in liver at 6.25 mg/kg, iv administered within 6 hrs post onset of sustained fever as 30 mins infusion for 5 days (reference value: 5.2 10^8CFU/g)", "assay_type": "functional, CO92"}, "Yersinia pestis [22]": {"test_system": "Yersinia pestis", "experiment": "as §1, with “B6672” for “B6469”, “12.5” for “25”", "assay_type": "functional, CO92, Lymph node"}, "African green monkey [23]": {"test_system": "African green monkey", "experiment": "Toxicity in African green monkey 7929 model infected with Yersinia pestis Colorado 92 assessed as blood urea nitrogen level at 25 mg/kg, iv administered within 6 hrs post onset of sustained fever as 30 mins infusion for 10 days (reference value: 15 mg/dl)", "assay_type": "organism-based", "conditions": "chlorocebus sabaeus, in vivo"}, "African green monkey [24]": {"test_system": "African green monkey", "experiment": "Toxicity in African green monkey 7643 model infected with Yersinia pestis Colorado 92 assessed as serum lactate dehydrogenase level at 25 mg/kg, iv administered within 6 hrs post onset of sustained fever as 30 mins infusion for 10 days (reference value: 278 IU/L)", "assay_type": "organism-based", "conditions": "chlorocebus sabaeus, in vivo"}, "African green monkey [25]": {"test_system": "African green monkey", "experiment": "Toxicity in African green monkey 7972 model infected with Yersinia pestis Colorado 92 assessed as serum alanine aminotransferase level at 25 mg/kg, iv administered within 6 hrs post onset of sustained fever as 30 mins infusion for 10 days (reference value: 30 IU/L)", "assay_type": "organism-based", "conditions": "chlorocebus sabaeus, in vivo"}}, "data": [{"smiles": "CN[C@@H]1[C@@H](O)[C@@H](O[C@@H]2[C@@H](O)[C@H](O[C@H]3OC(CNCCO)=CC[C@H]3N)[C@@H](N)C[C@H]2NC(=O)[C@@H](O)CCN)OC[C@]1(C)O", "note": "[PLAZOMICIN]", "values": [{"measurement": "Activity", "setting": "African green monkey [1]", "result": 27, "unit": "mg/dL"}, {"measurement": "Activity", "setting": "Yersinia pestis [2]", "result": 16, "unit": "CFU/g"}, {"measurement": "Activity", "setting": "Yersinia pestis [3]", "result": "Below limit of detection"}, {"measurement": "Activity", "setting": "Yersinia pestis [4]", "result": 30, "unit": "CFU/g"}, {"measurement": "Activity", "setting": "Yersinia pestis [5]", "result": "Below limit of detection"}, {"measurement": "Activity", "setting": "Yersinia pestis [6]", "result": "Below limit of detection"}, {"measurement": "Activity", "setting": "African green monkey [7]", "result": 44, "unit": "IU/L"}, {"measurement": "Activity", "setting": "Yersinia pestis [8]", "result": "Below limit of detection"}, {"measurement": "Activity", "setting": "Yersinia pestis [9]", "result": 1.2, "unit": "×10⁶ CFU/g"}, {"measurement": "Activity", "setting": "Yersinia pestis [10]", "result": "Below limit of detection"}, {"measurement": "Activity", "setting": "African green monkey [11]", "result": 27, "unit": "IU/L"}, {"measurement": "Activity", "setting": "Yersinia pestis [12]", "result": 44, "unit": "CFU/g"}, {"measurement": "Activity", "setting": "African green monkey [13]", "result": 398, "unit": "IU/L"}, {"measurement": "Activity", "setting": "Yersinia pestis [14]", "result": 4.5, "unit": "×10⁶ CFU/g"}, {"measurement": "Activity", "setting": "Yersinia pestis [15]", "result": "Below limit of detection"}, {"measurement": "Activity", "setting": "African green monkey [16]", "result": "Toxic"}, {"measurement": "Activity", "setting": "Yersinia pestis [17]", "result": 2.8, "unit": "×10⁹ CFU/g"}, {"measurement": "Activity", "setting": "Yersinia pestis [18]", "result": 24, "unit": "CFU/ml"}, {"measurement": "Activity", "setting": "African green monkey [19]", "result": 102, "unit": "IU/L"}, {"measurement": "Activity", "setting": "African green monkey [20]", "result": 478, "unit": "IU/L"}, {"measurement": "Activity", "setting": "Yersinia pestis [21]", "result": 17, "unit": "CFU/g"}, {"measurement": "Activity", "setting": "Yersinia pestis [22]", "result": 8.3, "unit": "×10⁶ CFU/g"}, {"measurement": "Activity", "setting": "African green monkey [23]", "result": 17, "unit": "mg/dL"}, {"measurement": "Activity", "setting": "African green monkey [24]", "result": 606, "unit": "IU/L"}, {"measurement": "Activity", "setting": "African green monkey [25]", "result": 36, "unit": "IU/L"}]}]}
